Experimental data as given in paper PMC7155212 (Journal of Enzyme Inhibition and Medicinal Chemistry, 2020).

What was measured:
[1] = biological target: AChE (Electrophorus electricus, UniProt O42275); assay: Kinetic characterisation of AChE inhibition (Lineweaver-Burk); format: biochemical; details: Lineweaver-Burk plot, Figure 1A
Method: (§1) To obtain the mechanism of action of 13, reciprocal plots of 1/velocity versus 1/[substrate] were constructed at different concentrations of the substrate […] by using Ellman’s method. Compound 13 was added to the assay solution and preincubated with the enzyme at 37 °C for 5 min, followed by the addition of the substrate. Kinetic characterisation catalysed by enzyme was achieved spectrometrically at 412 nm. A parallel control experiment was carried out without compound 13 in the mixture. Lineweaver–Burk plot was made based on the reaction rate and substrate concentration to determine the type of inhibition of the ChE by the compound.

[2] = In vitro antioxidant activity (DPPH radical scavenging); details: DPPH free radical scavenging, 30 min at 37 °C, mean ± SD (n = 3)
Method: The assay provides an assessment of the antioxidant activity due to free radical scavenging by measuring hydrogen atom (or one electron) donating activity. DPPH is a purple stable free radical that is reduced to a yellow-coloured diphenylpicryl hydrazine by an antioxidant. The spectrophotometric assay was carried out as described by the literature method with a slight modification. 100 μL of a sample solution was added to 100 μL of DPPH solution. Following 30 min of incubation at 37 °C and protection from light, the absorbance at 517 nm was determined using a microplate reader. Each group was measured three times in parallel to average. IC50 values were calculated. The percentage of DPPH radical scavenging rate of the target compound is calculated as follows: DPPH free radical scavenging effect (%)=[A0 – (A1−A2)]/A0×100% where A0 is the absorbance of blank group; A1 is the absorbance of sample group; A2 is the absorbance of sample blank group.

[3] = biological target: BuChE (Equus caballus, UniProt P81908); assay: Kinetic characterisation of BuChE inhibition (Lineweaver-Burk); format: biochemical; details: Lineweaver-Burk plot, Figure 1B
Sequence of BuChE (P81908 whole entry): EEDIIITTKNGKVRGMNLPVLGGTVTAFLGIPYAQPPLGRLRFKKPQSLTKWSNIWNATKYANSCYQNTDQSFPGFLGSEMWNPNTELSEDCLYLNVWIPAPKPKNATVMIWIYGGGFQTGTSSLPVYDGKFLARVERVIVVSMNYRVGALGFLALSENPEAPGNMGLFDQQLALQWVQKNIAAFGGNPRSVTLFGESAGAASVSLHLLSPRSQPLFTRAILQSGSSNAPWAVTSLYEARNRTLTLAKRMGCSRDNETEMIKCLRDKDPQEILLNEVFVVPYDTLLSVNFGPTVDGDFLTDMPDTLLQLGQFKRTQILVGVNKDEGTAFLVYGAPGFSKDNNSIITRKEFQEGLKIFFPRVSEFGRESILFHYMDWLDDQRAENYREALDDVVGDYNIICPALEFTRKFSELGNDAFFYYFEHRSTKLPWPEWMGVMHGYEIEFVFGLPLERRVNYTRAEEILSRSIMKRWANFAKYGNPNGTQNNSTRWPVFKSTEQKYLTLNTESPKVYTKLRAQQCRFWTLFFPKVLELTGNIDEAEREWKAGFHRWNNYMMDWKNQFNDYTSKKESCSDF
Method: as §1

[4] = biological target: T1, MAO-B (Rattus norvegicus, UniProt P19643); assay: In vitro MAO inhibitory activity (Holt method, crude enzyme from rat liver); format: biochemical, Wistar rat; details: rat liver crude enzyme, 4-(trifluoromethyl)benzylamine substrate, mean ± SD (n = 3); read-out: IC50 value MAO-B inhibitory activity
T1 construct: The crude enzyme was extracted from the liver of 200–250 g of Wistar rats; from tissue; host or cells: liver of Wistar rats (crude enzyme)
T1 sequence (P19643 1-520): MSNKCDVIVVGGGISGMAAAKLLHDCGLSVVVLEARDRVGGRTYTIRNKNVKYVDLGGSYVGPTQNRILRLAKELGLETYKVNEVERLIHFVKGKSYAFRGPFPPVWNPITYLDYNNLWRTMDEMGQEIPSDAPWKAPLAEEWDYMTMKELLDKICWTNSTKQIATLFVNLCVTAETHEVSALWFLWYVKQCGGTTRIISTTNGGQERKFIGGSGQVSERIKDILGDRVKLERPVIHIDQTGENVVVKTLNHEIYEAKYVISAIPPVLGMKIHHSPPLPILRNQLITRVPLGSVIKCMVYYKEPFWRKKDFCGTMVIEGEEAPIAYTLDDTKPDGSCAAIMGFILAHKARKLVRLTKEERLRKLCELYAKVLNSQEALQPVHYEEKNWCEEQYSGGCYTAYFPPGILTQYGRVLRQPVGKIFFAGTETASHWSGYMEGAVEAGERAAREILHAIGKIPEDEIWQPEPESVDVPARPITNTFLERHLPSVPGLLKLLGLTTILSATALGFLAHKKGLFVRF
Method: The MAO inhibitory activity of the 3-arylbenzofuranone compounds was determined by the method of Holt et al.[17] with slight modifications. The crude enzyme was extracted from the liver of 200–250 g of Wistar rats according to literature methods[18]^,[19]. The crude enzyme protein content was determined by the Bradford method using a Bradford Protein Assay Kit (Beyotime). The assay was performed in 0.2 M potassium phosphate buffer pH 7.6 on 96-well plates in 240 μl total volume. The chromogenic solution containing 1 mM vanillic acid, 0.5 mM 4-aminoantipyrine, and 4 U/ml horseradish peroxidase in 0.2 M potassium phosphate buffer pH 7.6 was mixed anew for each measurement. 40 μL of enzyme solution and 40 μL of sample solution were added to a 96-well plate. The solution was then incubated at 37 °C for 20 min. 120 μL of the 4-(trifluoromethyl) benzylamine solution and 40 μL of the chromogenic solution were added subsequently and incubated at 37 °C for 90 min. The absorbance was measured at 490 nm using a microplate reader, and the inhibition rate of MAO and the IC50 value of each sample were calculated according to the formula. The control group replaced the sample solution with PBS (0.2 M, pH = 7.6), the positive control replaced the sample with the positive drug, and the blank group replaced the substrate with PBS, and each group was measured three times in parallel to average. Monoamine oxidase inhibitory effect (%) = [(AC – AB) – (AS – ASB )]/(AC – AB)×100% where AC is the absorbance of control group; AB is the absorbance of blank group; AS is the absorbance of sample group; ASB is the absorbance of sample blank group.

Sequence of AChE (O42275 24-633): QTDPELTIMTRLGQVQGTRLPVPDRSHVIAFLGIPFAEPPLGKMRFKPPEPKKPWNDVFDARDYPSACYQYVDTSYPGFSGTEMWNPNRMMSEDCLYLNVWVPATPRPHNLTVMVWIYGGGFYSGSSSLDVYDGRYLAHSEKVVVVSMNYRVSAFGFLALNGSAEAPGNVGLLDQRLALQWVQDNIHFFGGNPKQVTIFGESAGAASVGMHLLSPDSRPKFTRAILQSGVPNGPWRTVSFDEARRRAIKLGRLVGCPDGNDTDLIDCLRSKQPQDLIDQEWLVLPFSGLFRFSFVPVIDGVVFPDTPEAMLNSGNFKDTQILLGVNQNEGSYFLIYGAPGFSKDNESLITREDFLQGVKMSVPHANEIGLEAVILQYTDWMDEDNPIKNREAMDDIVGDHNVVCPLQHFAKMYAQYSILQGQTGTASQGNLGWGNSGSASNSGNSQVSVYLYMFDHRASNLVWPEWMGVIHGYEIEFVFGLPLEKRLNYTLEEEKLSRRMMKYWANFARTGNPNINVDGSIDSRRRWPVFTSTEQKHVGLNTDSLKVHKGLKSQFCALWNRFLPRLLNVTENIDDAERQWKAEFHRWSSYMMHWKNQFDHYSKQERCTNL

## COc1cc2c(cc1O)C(c1ccc(OC)c(OC)c1)C(=O)O2 (stereo not shown) [Compound 13, 5-Hydroxy-6-methoxy-3–(3′,4′-dimethoxyphenyl)-benzofuranone]
[1]
  inhibition mode against AChE: reversible inhibition
[2]
  IC50: 5.33 ± 0.08 µM
[3]
  inhibition mode against BuChE: reversible inhibition
[4]
  IC50: 11.2 ± 0.72 µM
